Experimental data reported in paper PMC3607207 (ACS combinatorial science, 2012).
Entries after “also recorded” stand apart in the source; their conditions may differ.

Target: mu opioid receptor (Rattus norvegicus, UniProt P33535)
Assay: competitive radio receptor binding assay, [3H]DAMGO, rat brain membranes
Conditions: 1 mg/ml (14.7 mM) imidazole

Chain of mu opioid receptor (P33535 whole entry): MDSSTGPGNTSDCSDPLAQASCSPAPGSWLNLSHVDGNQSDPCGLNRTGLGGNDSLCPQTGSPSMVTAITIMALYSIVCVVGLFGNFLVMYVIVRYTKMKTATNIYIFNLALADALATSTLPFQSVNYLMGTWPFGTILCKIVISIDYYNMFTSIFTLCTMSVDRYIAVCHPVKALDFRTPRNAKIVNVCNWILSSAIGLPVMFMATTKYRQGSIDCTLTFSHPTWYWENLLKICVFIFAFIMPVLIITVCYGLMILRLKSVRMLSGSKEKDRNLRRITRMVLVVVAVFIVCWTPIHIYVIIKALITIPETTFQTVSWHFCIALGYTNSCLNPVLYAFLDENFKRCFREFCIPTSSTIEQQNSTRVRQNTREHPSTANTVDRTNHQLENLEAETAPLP

SMILES: c1c[nH]cn1 [imidazole]
- effect on binding of 3H-DAMGO to the mu opioid receptor: negligible inhibition; also recorded: No significant effect
